The source of these data is patent publication US9221809B2 (MERCK SHARP & DOHME CORP., priority 2011, dated 2015).

The structures appear in SMILES notation. Structures can show the parent of a compound that is named as a salt.

For the experiment, the target named is IRAK4 (Homo sapiens (Human), UniProt Q9NWZ3). The experiment is described as follows: IRAK4 kinase activity, IMAP fluorescence polarization assay. The class given is biochemical. Particulars: 100 μM ATP; read-out: IC50. In outline: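 Fluorescence polarization (IMAP nanoparticle binding of phosphopeptide) reports activity after a 30 min, 25 °C reaction. Conditions: 100 μM ATP, 0.5 nM GST-IRAK4, 100 nM fluorescent peptide, 10 mM Tris pH 7.2, 1 mM MgCl2, 1 mM DTT, 0.01% Tween 20.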
IRAK4, sequence (Q9NWZ3 whole entry): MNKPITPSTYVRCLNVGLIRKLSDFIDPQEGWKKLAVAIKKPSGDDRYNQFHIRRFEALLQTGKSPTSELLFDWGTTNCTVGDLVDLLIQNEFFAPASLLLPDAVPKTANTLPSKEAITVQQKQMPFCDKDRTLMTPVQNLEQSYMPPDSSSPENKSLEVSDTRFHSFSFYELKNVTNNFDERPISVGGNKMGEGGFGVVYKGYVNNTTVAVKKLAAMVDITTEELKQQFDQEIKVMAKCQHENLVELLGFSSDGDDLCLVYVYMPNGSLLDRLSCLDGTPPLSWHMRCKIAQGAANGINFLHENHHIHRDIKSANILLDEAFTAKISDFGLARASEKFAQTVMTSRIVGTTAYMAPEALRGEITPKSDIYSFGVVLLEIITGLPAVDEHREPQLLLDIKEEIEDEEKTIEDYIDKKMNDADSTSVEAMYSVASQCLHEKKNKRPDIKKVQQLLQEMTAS
A general note: Polarisation of emitted light reports the rotation of a fluorescent probe.

In general, IC50 refers to the concentration needed to halve the response being measured. Take `O=c1[nH]c(N2CCOCC2)nc(NCCN2CCCCC2)c1-c1ccc2ccccc2n1` [Example 278, 2-(morpholin-4-yl)-6-[[2-(piperidin-1-yl)ethyl]amino]-5-(quinolin-2-yl)-3,4-dihydropyrimidin-4-one]: the IC50 worked out at 2800 nM.
Take `O=c1[nH]c(N2CCOCC2)nc(NCCN2CCCC2)c1-c1ccc2ccccc2n1` [Example 279, 2-(morpholin-4-yl)-6-[[2-(pyrrolidin-1-yl)ethyl]amino]-5-(quinolin-2-yl)-3,4-dihydropyrimidin-4-one]: the IC50 was 4900 nM.
Turning to `O=c1[nH]c(N2CCOCC2)nc(NCC(O)CO)c1-c1ccc2ccccc2n1` (centres unmarked) [Example 281, 6-[(2,3-dihydroxypropyl)amino]-2-(morpholin-4-yl)-5-(quinolin-2-yl)-3,4-dihydropyrimidin-4-one], the IC50 was 1700 nM.
On to `O=c1[nH]c(N2CCOCC2)nc(NCCN2CCC(O)CC2)c1-c1ccc2ccccc2n1` [Example 282, 6-[[2-(4-hydroxypiperidin-1-yl)ethyl]amino]-2-(morpholin-4-yl)-5-(quinolin-2-yl)-3,4-dihydropyrimidin-4-one], for which the IC50 was found to be 2200 nM.
Consider `O=c1[nH]c(N2CCOC(CO)C2)nc(N[C@@H]2CCCNC2)c1-c1nc2ccccc2s1` (stereo partly drawn) [Example 285, 5-(1,3-benzothiazol-2-yl)-2-[2-(hydroxymethyl)morpholin-4-yl]-6-[[(3R)-piperidin-3-yl]amino]-3,4-dihydropyrimidin-4-one], for which the half-maximal inhibitory concentration (IC50) turned out to be 43 nM.
For `COCC1CN(c2nc(N[C@@H]3CCCNC3)c(-c3nc4ccccc4s3)c(=O)[nH]2)CCO1` (stereo partly drawn) [Example 286, 5-(benzo[d]thiazol-2-yl)-2-(2-(methoxymethyl)morpholino)-6-((R)-piperidin-3-ylamino)pyrimidin-4(3H)-one], the IC50 was found to be 81 nM.
In the case of `CNC(=O)C1CN(c2nc(N[C@@H]3CCCNC3)c(-c3nc4ccccc4s3)c(=O)[nH]2)CCO1` (stereo partly drawn) [Example 287, 4-(5-(benzo[d]thiazol-2-yl)-6-oxo-4-((R)-piperidin-3-ylamino)-1,6-dihydropyrimidin-2-yl)-N-methylmorpholine-2-carboxamide], the IC50 was 110 nM.
For `O=c1[nH]c(N2CCC2)nc(N[C@@H]2CCCNC2)c1-c1nc2ccccc2s1` [Example 288, (R)-2-(azetidin-1-yl)-5-(benzo[d]thiazol-2-yl)-6-(piperidin-3-ylamino)pyrimidin-4(3H)-one] the value was 2000 nM; for `CN(C)c1nc(N[C@@H]2CCCNC2)c(-c2nc3ccccc3s2)c(=O)[nH]1` [Example 289, (R)-5-(benzo[d]thiazol-2-yl)-2-(dimethylamino)-6-(piperidin-3-ylamino)pyrimidin-4(3H)-one], 74 nM.
For `CC1CCCN(c2nc(N[C@@H]3CCCNC3)c(-c3nc4ccccc4s3)c(=O)[nH]2)C1` (stereo partly drawn) [Example 290, 5-(benzo[d]thiazol-2-yl)-2-(3-methylpiperidin-1-yl)-6-((R)-piperidin-3-ylamino)pyrimidin-4(3H)-one] the value was 140 nM; for `O=c1[nH]c(N[C@H]2c3ccccc3C[C@@H]2O)nc(N[C@@H]2CCCNC2)c1-c1nc2ccccc2s1` [Example 291, 5-(benzo[d]thiazol-2-yl)-2-((1S,2S)-2-hydroxy-2,3-dihydro-1H-inden-1-ylamino)-6-((R)-piperidin-3-ylamino)pyrimidin-4(3H)-one], 3000 nM; for `CN(CCO)c1nc(N[C@@H]2CCCNC2)c(-c2nc3ccccc3s2)c(=O)[nH]1` [Example 292, (R)-5-(benzo[d]thiazol-2-yl)-2-((2-hydroxyethyl)(methyl)amino)-6-(piperidin-3-ylamino)pyrimidin-4(3H)-one], 190 nM.
Regarding `COC1CCN(c2nc(N[C@@H]3CCCNC3)c(-c3nc4ccccc4s3)c(=O)[nH]2)CC1` [Example 293, (R)-5-(benzo[d]thiazol-2-yl)-2-(4-methoxypiperidin-1-yl)-6-(piperidin-3-ylamino)pyrimidin-4(3H)-one], the IC50 turned out to be 63 nM.
For the compound `CC1CN(c2nc(N[C@@H]3CCCNC3)c(-c3nc4ccccc4s3)c(=O)[nH]2)CC(C)O1` (stereo partly drawn) [Example 294, 5-(benzo[d]thiazol-2-yl)-2-(2,6-dimethylmorpholino)-6-((R)-piperidin-3-ylamino)pyrimidiri-4{3H)-one], the IC50 is 300 nM.
Regarding `O=c1[nH]c(N2CCCC2)nc(N[C@@H]2CCCNC2)c1-c1nc2ccccc2s1` [Example 295], the IC50 came to 11 nM.
Consider `CC1CC(C)CN(c2nc(N[C@@H]3CCCNC3)c(-c3nc4ccccc4s3)c(=O)[nH]2)C1` (stereo partly drawn) [Example 296, 5-(1,3-benzothiazol-2-yl)-2-(3,5-dimethylpiperidin-1-yl)-6-[[(3R)-piperidin-3-yl]amino]-3,4-dihydropyrimidin-4-one trifluoroacetic acid], for which the IC50 is 570 nM.
With `CC1CCN(c2nc(N[C@@H]3CCCNC3)c(-c3nc4ccccc4s3)c(=O)[nH]2)CC1` [Example 297, 5-(1,3-benzothiazol-2-yl)-2-(4-methylpiperidin-1-yl)-6-[[(3R)-piperidin-3-yl]amino]-3,4-dihydropyrimidin-4-one], the IC50 was found to be 69 nM.
For the compound `O=c1[nH]c(N[C@H]2c3ccccc3C[C@H]2O)nc(N[C@@H]2CCCNC2)c1-c1nc2ccccc2s1` [Example 298, 5-(1,3-benzothdazol-2-yl)-2-[[(1S,2R)-2-hydroxy-2,3-dihydro-1H-inden-1-yl]amino]-6-[[(3R)-piperidin-3-yl]amino]pyrimidin-4-ol; formic acid], the IC50 came out at 2500 nM.
Take `O=c1[nH]c(N[C@@H]2c3ccccc3C[C@@H]2O)nc(N[C@@H]2CCCNC2)c1-c1nc2ccccc2s1` [Example 299, 5-(1,3-benzothiazol-2-yl)-2-[[(1R,2S)-2-hydroxy-2,3-dihydro-1H-inden-1-yl]amino]-6-[[(3R)-piperidin-3-yl]amino]pyrimidin-4-ol formic acid]: the IC50 came out at 1200 nM.
`O=c1[nH]c(N2CC3CCC(C2)O3)nc(N[C@@H]2CCCNC2)c1-c1nc2ccccc2s1` [Example 300, 5-(1,3-benzothiazol-2-yl)-2-[8-oxa-3-azabicyclo[3.2.1]octan-3-yl]-6-[[(3R)-piperidin-3-yl]amino]-3,4-dihydropyrimidin-4-one; trifluoroacetic acid]: the IC50 worked out at 43 nM.
With `CN(c1nc(NC2CCCNC2)c(-c2nc3ccccc3s2)c(=O)[nH]1)[C@H]1CC[C@H](O)CC1` (stereo partly drawn) [Example 301, 5-(1,3-benzothiazol-2-yl)-2-[(4-hydroxycyclohexyl)(methyl)amino]-6-[[(3R)-piperidin-3-yl]amino]-3,4-dihydropyrimidin-4-one; trifluoroacetic acid], the IC50 stood at 390 nM.
For `NC(=O)CNc1nc(N[C@@H]2CCCNC2)c(-c2nc3ccccc3s2)c(=O)[nH]1` [Example 302, (R)-2-(5-(benzo[d]thiazol-2-yl)-6-oxo-4-(piperidin-3-ylamino)-1,6-dihydropyrimidin-2-ylamino)acetamide bis(2,2,2-trifluoroacetate)] the value was 2300 nM; for `O=C1C[C@@H](Nc2nc(N[C@@H]3CCCNC3)c(-c3nc4ccccc4s3)c(=O)[nH]2)Cc2ccccc2N1` [Example 303, (S)-4-(5-(benzo[d]thiazol-2-yl)-6-oxo-4-((R)-piperidin-3-ylamino)-1,6-dihydropyrimidin-2-ylamino)-4,5-dihydro-1H-benzo[b]azepin-2(3H)-one], 5900 nM.
Consider `O=C1C[C@H](Nc2nc(N[C@@H]3CCCNC3)c(-c3nc4ccccc4s3)c(=O)[nH]2)Cc2ccccc2N1` [Example 304], for which the IC50 was found to be 8900 nM.
As to `O=c1[nH]c(N2CCC(CO)CC2)nc(N[C@@H]2CCCNC2)c1-c1nc2ccccc2s1` [Example 305, 5-(1,3-benzothiazol-2-yl)-2-[4-(hydroxymethyl)piperidin-1-yl]-6-[[(3R)-piperidin-3-yl]amino]-3,4-dihydropyrimidin-4-one], the IC50 was determined as 62 nM.
Take `O=c1[nH]c(N2CC[C@H](O)C2)nc(N[C@@H]2CCCNC2)c1-c1nc2ccccc2s1` [Example 306, 5-(benzo[d]thiazol-2-yl)-2-((S)-3-hydroxy-pyrrolidin-1-yl)-6-((R)-piperidin-3-ylamino)pyrimidin-4(3H)-one bis(2,2,2-trifluoro-acetate)]: the IC50 came out at 23 nM.
As for `CN(Cc1ccccc1)c1nc(N[C@@H]2CCCNC2)c(-c2nc3ccccc3s2)c(=O)[nH]1` [Example 307, 5-(1,3-benzothiazol-2-yl)-2-[benzyl(methyl)amino]-6-[[(3R)-piperidin-3-yl]amino]-3,4-dihydropyrimidin-4-one dihydrocbloride], the IC50 came to 310 nM.
Regarding `Cc1ccc2sc(-c3c(N[C@@H]4CCCNC4)nc(N4CCOCC4)[nH]c3=O)nc2c1` [Example 308, 5-(5-methyl-1,3-benzothiazol-2-yl)-2-(morpholin-4-yl)-6-[[(3R)-piperidin-3-yl]amino]-3,4-dihydropyrimidin-4-one; formic acid], the IC50 amounted to 120 nM.
As for `O=c1[nH]c(N2CCCCC2)nc(N[C@@H]2CCCNC2)c1-c1nc2ccccc2s1` [Example 309, 5-(1,3-benzothiazol-2-yl)-2-(piperidin-1-yl)-6-[[(3R)-piperidin-3-yl]amino]-3,4-dihydropyrimidin-4-one hydrochloride], the IC50 came to 71 nM.
Consider `CN(c1nc(N[C@@H]2CCCNC2)c(-c2nc3ccccc3s2)c(=O)[nH]1)[C@H](CO)c1ccccc1` [Example 310, 5-(1,3-benzothiazol-2-yl)-2-[[(1S)-2-hydroxy-1-phenylethyl](methyl)amino]-6-[[(3R)-piperidin-3-yl]amino]-3,4-dihydropyrimidin-4-one; trifluoroacetic acid], for which the IC50 stood at 250 nM.
Regarding `O=c1[nH]c(NCCO)nc(N[C@@H]2CCCNC2)c1-c1nc2ccccc2s1` [Example 311, 5-(1,3-benzothiazol-2-yl)-2-[(2-hydroxyethyl)amino]-6-[[(3R)-piperidin-3-yl]amino]-3,4-dihydropyrimidin-4-one; trifluoroacetic acid], the half-maximal inhibitory concentration (IC50) was 450 nM.
Take `O=c1[nH]c(N2CCC(F)(F)CC2)nc(N[C@@H]2CCCNC2)c1-c1nc2ccccc2s1` [Example 312]: the IC50 was 78 nM.
